Test results from EP1246814B1, “COMPOUNDS AND METHODS FOR MODULATION OF ESTROGEN RECEPTORS” (SIGNAL PHARMACEUTICALS, INC., priority 1999, dated 2001).
Where a name gives a salt, the structure may show the parent alone. Read-outs that look alike come from different tables or passages of the source.

Assays:
U2OS IL-6 ER-Minus = assay: IL-6 production in ER-minus U2OS osteosarcoma cells; assay type: cell-based; settings: Homo sapiens
IL-6 = assay: Human bone cell co-culture system, IL-6 production; assay type: cell-based; settings: for IC50: human bone co-culture system of Example 12
Description: (§1) The generation of osteoblastic cells from normal adult femoral travecular bone from patients without evidence of metabolic bone disease was carried out as previously described (Kung Sutherland et al., Osteoporosis International 5:335-343, 1995; Wong et al., J Bone Miner 5:803-813, 1990). Bone fragments were cleaned of adherent tissue and blood and cultured for 4 weeks in medium containing Ham's F12 supplemented with 28 mM HEPES, pH 7.4, 10% FCS, 1.1 mM CaCl2, 2 mM glutamine, and 1% antibiotic-antimycotic agent. Upon confluency, the cells were harvested and immortalized using a retroviral vector (pLXSN) containing the neomycin resistance gene and the human papillomaviral (HPV18) E6 and E7 concogenes (International Journal of Oncology 6:167-174, 1995). The immortalized osteoblastic cells were selected in medium containing G418 (600 µg/ml).
(§2) The human U937 moncytic cell line (cloned from the commercially available cells by serial dilution) was maintained in RPMI 1640 medium containing 10% FCS and 1% antibiotic-antimycotic agent.
The co-culture system was established as follows. Human osteoblastic cells were plated in 96-well dishes at a density of 5 x 10^3 cells/well. U937 cells in RPMI medium (5 x 10^4 cells/well) were layered over the osteoblasts. The formation of osteoclast-like cells was induced with 100 nM PMA. To determine the effects of compounds or the neutralizing antibodies to IL-6 (Sigma) and GM-CSF (Pharmingen) on the formation of osteoclast-like cells, the compounds or the antibodies were added 30 minutes prior to the addition of PMA. The cultures were stopped after 96 hrs and processed for histochemical or immunohistochemical analyses.

GM-CSF = assay: Human bone cell co-culture system, GM-CSF production; assay type: cell-based
Description: as §1, §2
The co-culture system was established as follows. Human osteoblastic cells were plated in 96-well dishes at a density of 5 x 10^3 cells/well. U937 cells in RPMI medium (5 x 10^4 cells/well) were layered over the osteoblasts. The formation of osteoclast-like cells was induced with 100 nM PMA. […]

human recombinant ER-α = target: T1, human recombinant ER-α (Homo sapiens, UniProt P03372); assay: Solid phase ER binding assay (3H-estradiol competition), ER-α
T1 sequence (P03372 1-595): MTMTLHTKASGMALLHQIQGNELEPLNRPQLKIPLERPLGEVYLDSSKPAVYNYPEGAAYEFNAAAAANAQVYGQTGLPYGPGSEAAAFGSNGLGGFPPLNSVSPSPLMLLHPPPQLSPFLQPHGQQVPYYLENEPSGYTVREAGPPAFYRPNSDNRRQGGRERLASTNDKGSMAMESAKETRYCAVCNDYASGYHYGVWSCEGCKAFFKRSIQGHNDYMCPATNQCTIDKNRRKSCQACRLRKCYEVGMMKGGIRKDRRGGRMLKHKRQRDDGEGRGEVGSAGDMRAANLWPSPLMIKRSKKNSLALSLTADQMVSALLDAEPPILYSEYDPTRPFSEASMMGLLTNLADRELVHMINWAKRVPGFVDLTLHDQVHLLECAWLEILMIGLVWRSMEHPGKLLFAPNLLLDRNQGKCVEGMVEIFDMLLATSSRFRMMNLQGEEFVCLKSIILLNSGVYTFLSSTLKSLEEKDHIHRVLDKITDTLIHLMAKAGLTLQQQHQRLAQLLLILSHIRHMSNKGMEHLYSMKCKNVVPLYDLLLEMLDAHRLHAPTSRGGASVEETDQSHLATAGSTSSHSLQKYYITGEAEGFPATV

[1] = 3-day immature rat uterine bioassay; settings: s.c. administration
[2] = 28-day uterine bioassay in ovariectomized rats; assay type: in vivo
human recombinant ER-β = human recombinant ER-β (Homo sapiens, UniProt Q92731); assay: Solid phase ER binding assay (3H-estradiol competition), ER-β; settings: ER binding assay of Example 18
human full-length ER-α = target: T2, human full-length ER-α (Homo sapiens, UniProt P03372); assay: IL-6 production in U2OS osteosarcoma cells stably transfected with ER-α; assay type: cell-based
T2 construct: expression vectors for human full-length ER-α or ER-β; expressed in transfected cells
T2 sequence (P03372 1-595): T1 sequence (P03372 1-595)
Description: (§3) Human U2OS osteosarcoma cells (ATCC) were stably transfected with expression vectors for human full-length ER-α or ER-β, respectively, using standard molecular biology techniques. Stable subclones were generated that expressed high levels of ER-α or ER-β mRNA. The expression of ER-α and ER-β was confirmed using RNase protection analysis.
(§4) Cells were plated into 96-well plates at a density of 8000 cells per well in phenol red-free media with charcoal-stripped fetal calf serum. Twenty-four hours later, cells were either treated with vehicle (0.2% DMSO) or test compound at the concentrations indicated (in 0.2% DMSO). Thirty minutes later cells were stimulated with 10 ng/ml IL-1β and 10 ng/ml TNF-α. Twenty-four hours later the media supernatant was analyzed for cytokine production (IL-6) using commercially available ELISA kits following the manufacturer's instructions. Cytokine production in the presence of vehicle (0.2% DMSO) was set to 100%.

human full-length ER-β = target: T3, human full-length ER-β (Homo sapiens, UniProt Q92731); assay: IL-6 production in U2OS osteosarcoma cells stably transfected with ER-β; assay type: cell-based; settings: for ER subtype specificity (ER-β versus ER-α): comparison of the U2OS IL-6 IC50 values of Table 4
T3 construct: expression vectors for human full-length ER-α or ER-β; expressed in transfected cells
Description: as §3, §4

[3] = ER binding assay of Example 18, read-out: ER Binding Assay ER-α (Ki)

T3 sequence (Q92731 whole entry): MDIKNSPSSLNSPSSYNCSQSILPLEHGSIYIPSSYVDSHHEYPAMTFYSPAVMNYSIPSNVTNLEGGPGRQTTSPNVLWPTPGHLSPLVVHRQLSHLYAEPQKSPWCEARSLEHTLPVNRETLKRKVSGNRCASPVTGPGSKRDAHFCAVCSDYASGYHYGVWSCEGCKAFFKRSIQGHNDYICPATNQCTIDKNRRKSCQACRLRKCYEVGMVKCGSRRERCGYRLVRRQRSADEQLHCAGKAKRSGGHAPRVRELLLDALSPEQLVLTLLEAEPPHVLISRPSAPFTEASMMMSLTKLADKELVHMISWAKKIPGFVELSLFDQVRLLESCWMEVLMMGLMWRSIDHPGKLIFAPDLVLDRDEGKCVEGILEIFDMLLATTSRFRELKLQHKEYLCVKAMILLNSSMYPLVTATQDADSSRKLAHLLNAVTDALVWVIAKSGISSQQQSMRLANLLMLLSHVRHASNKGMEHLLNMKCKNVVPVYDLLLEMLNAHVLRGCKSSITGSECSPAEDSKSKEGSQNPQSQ
Sequence of human recombinant ER-β (Q92731 whole entry): as above

Question: For `CCC(=C(c1ccc(O)cc1)c1ccc(OCCN(C)C)cc1)c1ccccc1` [4-Hydroxy-Tamoxifen], which IC50 (U2OS IL-6 ER-Minus) is on record?
Answer: > 1 µM

Question: With `O=c1oc2cc(O)ccc2c(Cc2ccc(OCCN3CCCCC3)cc2)c1-c1ccccc1` [Compound No. 1, 3-PHENYL-4-[4-(2-{PIPERIDIN-1-YL})ETHOXY]-BENZYL-7-HYDROXYCOUMARIN] as the compound, how does the IC50 (IL-6; read-out: IC50 with respect to IL-6) read?
Answer: 0.01 µM

Question: What about the IC50 (GM-CSF; human bone co-culture system of Example 12, read-out: IC50 with respect to GM-CSF) of the same compound?
Answer: 0.038 µM

Question: What about the Ki (human recombinant ER-α; read-out: Solid Phase ER Binding Ki (nM) ER-α, ER-α 15 nM, 30 nM 3H-estradiol, room temperature, average of at least 3 experiments) of the same compound?
Answer: 1.4 nM

Question: What about the “increase in uterine weight” value ([1]; not statistically different from vehicle (PEG-400)) of the same compound?
Answer: ~30%

Question: Which “increase in uterine weight” value ([2]; female, rat, in vivo, sc, 28 day) does the source give for `O=C(c1ccc(OCCN2CCCCC2)cc1)c1c(-c2ccc(O)cc2)sc2cc(O)ccc12` [Raloxifene HCl, Raloxifene Hydrochloride] here?
Answer: ~70%

Question: And the IC50 (U2OS IL-6 ER-Minus)?
Answer: > 1 µM

Question: And the “increase in uterine weight” value ([1]; 1mg/kg dose)?
Answer: up to 50%

Question: For `CCN(CC)CCOc1ccc(-c2c(-c3ccccc3)c(=O)oc3cc(O)ccc23)cc1` [Compound No. 38], which IC50 (IL-6; read-out: IL-6 Activity (IC50)) is on record?
Answer: 0.175 µM

Question: And the Ki (human recombinant ER-α; [3])?
Answer: 690 nM

Question: What about the Ki (human recombinant ER-β) of the same compound?
Answer: 1.56 µM

Question: And the IC50 (human full-length ER-α)?
Answer: > 1 µM

Question: What about the IC50 (human full-length ER-β) of the same compound?
Answer: 0.165 µM

Question: And the “ER subtype specificity (ER-β versus ER-α)” value (human full-length ER-β)?
Answer: specificity for ER-β over ER-α

Question: What about the IC50 (U2OS IL-6 ER-Minus) of the same compound?
Answer: > 10 µM

Question: For `CCN(CC)CCOc1ccc(-c2c(-c3ccccc3)c(=O)oc3ccccc23)cc1` ["L-20", reference compound], which IC50 (IL-6; read-out: IL-6 Activity (IC50)) is on record?
Answer: > 1 µM

Question: What about the Ki (human recombinant ER-α; [3]) of the same compound?
Answer: > 10000 nM

Question: And the IC50 (human full-length ER-α)?
Answer: > 1 µM

Question: And the IC50 (human full-length ER-β)?
Answer: > 1 µM

Question: And the IC50 (U2OS IL-6 ER-Minus)?
Answer: > 1 µM

Question: Which IC50 (human full-length ER-α) does the source give for `O=c1oc2cc(O)ccc2c(-c2ccc(OCCN3CCCCC3)cc2)c1-c1ccc(Cl)cc1` [compound 16] here?
Answer: 0.325 µM

Question: What about the IC50 (human full-length ER-β) of the same compound?
Answer: 0.051 µM

Question: And the “ER subtype specificity (ER-β versus ER-α)” value (human full-length ER-β)?
Answer: specificity for ER-β over ER-α

Question: And the IC50 (U2OS IL-6 ER-Minus)?
Answer: > 1 µM

Question: With `C[C@]12CC[C@@H]3c4ccc(O)cc4CC[C@H]3[C@@H]1CC[C@@H]2O` [Estradiol, 17β-estradiol] as the compound, how does the “production of IL-6” value (IL-6; co-culture system) read?
Answer: suppress the production of IL-6

Question: And the “production of GM-CSF” value (GM-CSF; co-culture system)?
Answer: reduced the production of GM-CSF

Question: What about the “increase in uterine weight” value ([2]; ovariectomized rats, 28-day, daily s.c. injection) of the same compound?
Answer: 550%

Question: What about the IC50 (U2OS IL-6 ER-Minus) of the same compound?
Answer: > 1 µM

Question: What about the “increase in uterine weight” value [1] of the same compound?
Answer: 4.5 fold
